Series [1] relates to encephalitogenic (MBP-specific GFP) T cells and inflammatory cells in CNS and spleen. As to the kind of experiment: Cytofluorometric cell counts in organs of EAE animals. The format is in vivo, rat. How it is done:
Animals (6 per group, body weight approx. 150 g) were injected i.p. twice per day with either PBS (vehicle control), nicotinic acid (50 μmol/100 g body weight), or BZ 52 (50 μmol/100 g body weight). […] Data are corrected for organ mass and presented as mean±SD from one representative experiment.
Cytofluorometric cell counts of MBP-specific GFP T cells in spleen A and CNS B of BZ194 (500 μmol) and DMSO-treated animals at d 3 after T cell transfer.
Cytofluorometric counts of T cells (CD4/8, abTCR), monocytes/macrophages (CD11b), dendritic cells (CD11c), B cells (OX33/CD45RA) and LFA-1+ (CD11a) and MHC class II+ (OX-6) cells in EAE lesions 4 days after T cell transfer after BZ194 (5 d, 500 μmol, blue bars) or vehicle (DMSO, magenta bars).
Single cell suspensions from organs were prepared as described previously (Flügel et al. 2001, Immunity). TGFP cells were sorted immediately after cell preparation in PBS containing 2% glucose at 4° C. using FACS Vantage (Becton Dickinson) or MoFlo sorter (Cytomation Bioinstruments, Freiburg, Germany). Cytofluorometric analysis was performed with FACS-Calibur operated by Cell Quest software (Becton Dickinson). The following monoclonal antibodies were used for surface membrane analysis: W3/25 (anti-CD4), OX33 (CD45RA, B cells, both from Serotec, Düsseldorf, Germany), R73 (abTCR), OX-6 (rat MHC class II), OX-40 antigen (CD134), OX-39 (CD25, IL-2Ra chain), CD8a, CD8b, CD11a (LFA-1a), CD11b (integrin aM chain), CD11b/c (OX42), CD11c (integrin aX chain) (all Becton Dickinson, Heidelberg, Germany). Allophycocyanin-labeled anti-mouse antibody (Invitrogen, Karlsruhe, Germany) was used as secondary antibody.

Series [2] relates to T cell receptor/CD3 complex mediated Ca2+ signalling. The experiment in a line: Ca2+ signalling evoked by crosslinking of CD3 in rat encephalitogenic (MBP-specific) T cells. The format is cell-based. Conditions: for TCR/CD3-induced Ca2+ signalling: T-lymphocytes, summary statement. An excerpt: Assuming that the NAADP/Ca^2+ signalling system plays an important role in T cell receptor/CD3 mediated activation, one would expect an inhibitory effect of BZ 52 on stimulation of rat encephalitogenic CD4-positive T cells via CD3 crosslinking. Thus, Fura2-loaded rat encephalitogenic CD4-positive T cells (resting) were stimulated by anti-CD3 followed by crosslinking of the primary antibody (FIG. 11, black line). A rapid high increase of [Ca^2+]i followed by a briefly elevated sustained phase was observed.
Fura2-loaded rat T cells were analyzed for [Ca^2+]i by fluorimetry. First arrow indicates addition of anti-CD3 mAb, second arrow indicates addition of a crosslinking secondary antibody. In case of BZ 52 cells were preincubated with BZ 52 (500 μM) for 60 min at RT.
Resting rat T cells were loaded with fura2/AM and suspension measurements were carried out as described in [4]. Arrows indicate time point of addition of antibody or Ca^2+ solution. A, Addition of anti-CD3-mAb (1st arrow) and a crosslinking, secondary antibody (2nd arrow). B, Bar chart summarizing data from A (transient Ca^2+ peak and Ca^2+ plateau; mean±s.e.m, n=8-9). C, Under Ca^2+ free conditions the anti-CD3-mAb (1st arrow) and secondary crosslinking antiserum (2nd arrow) were added; then [Ca^2+] was increased to 1 mM (3rd arrow). D, Bar chart summarizing data from C (transient Ca^2+ release peak, Ca^2+ influx peak, Ca^2+ influx plateau and the difference between Ca^2+ influx peak and plateau (=Overshoot); mean±s.e.m, n=6-7). The negative controls are without stimulation by anti-CD3-mAb.
[Ca^2+]i was measured by using the fluorescent indicator Fura2/AM. In brief, 10^7 cells were loaded with Fura2/AM, and fluorescence was determined in batches of 1.5×10^6 cells with an Hitachi F-2000 fluorimeter at excitation and emission wavelengths of 340 and 380 nm (exc.) and 505 nm (em.), respectively. Measurements were carried out at 20° C. At the end of each single measurement maximal and minimal ratios were determined by addition of Triton X-100 and EGTA/Tris.

Series [3] concerns myelin-basic protein (MBP) specific, CD4-positive rat T cells. As to the kind of experiment: In vitro proliferation assay (rat encephalitogenic T cells). Format: cell-based. Conditions: for pIC50: Rattus norvegicus, CD4 positive, 3H-thymidine incorporation; for proliferation: T-lymphocytes, summary statement. The method, then:
A more downstream event of T cell activation was analyzed in myelin-basic protein (MBP) specific, CD4-positive rat T cells. These cells can be driven into proliferation by MBP presented by irradiated thymocytes or by the mitogen concanavalin A (ConA).
Resting MBP-GFP T cells were plated in 96-wells (5×10^4 well) and stimulated by the addition of thymocytes (1.5×10^6/well) and MBP ([…]) or ConA (1.25 μg/ml), respectively.
After 2 days 3H-thymidine (Amersham Biosciences) was added to the activated cells (final concentration 4 μCi/ml); after 16 h of incubation 3H-thymidine incorporation was measured (Matrix 9600-Direct Beta Counter Packad).
Cells were stimulated in presence of MBP-pulsed irradiated APCs and increasing concentrations of BZ194. After 48 h cells were collected for cytofluorometric cell count A and RNA extraction was performed for quantitative PCR analysis (IL2) B. Effect of BZ194 on pre-activated T cell blasts C. Amplification of MBP-specific T cells which had been incubated before in the presence of DMSO or 0.5 mM or 1 mM BZ194 D.
TMBP-GFP cells were co-cultured for 48 h in 96well plates (in DMEM 1% rat serum) with APCs in presence of specific antigen ([…]) or without. Amplification of TMBP-GFP cells was measured by cytofluorometry as described (Kawakami et al. 2005, J.I.). Their numbers were determined in relation to a known absolute number of added phycoerythrin-labeled plastic beads (Becton-Dickinson). The amplification rate was calculated in relation to the GFP+T cell numbers at day 0. Alternatively, [^3H]dT (2 Ci/mmol; Amersham-Buchler) incorporation was used to evaluate proliferation. The radioactive label present in the different cultures was determined as described (Flügel et al., 2001, Immunity)
(In general: Dividing cells build labelled thymidine or BrdU into new DNA.)

SMILES strings stand for the structures. pIC50: −log10 of the molar value. Entries after “also recorded” stand apart in the source; their conditions may differ. Like-named read-outs stand apart in the source and are kept apart here.

For the compound `CCCCN(CCCC)C(=O)C[n+]1cccc(C(=O)O)c1` [BZ52, 3-Carboxy-1-dibutylcarbamoylmethyl-pyridinium], the “number of encephalitogenic T cells” value in series [1] (day 4 post transfer, 50 μmol/100 g i.p. twice per day) is listed as “reduced significantly”. Moreover, the “decrease of number of CNS-infiltrating encephalitogenic T cells” value in series [1] (day 4 post transfer, 50 μmol/100 g i.p. twice per day, one animal per group) is on record as “about 50%”. Further, the “TCR/CD3-induced Ca2+ signalling” value in series [2] is recorded as “efficiently inhibited”. For the same compound, the “Ca2+ signalling upon CD3-crosslinking” value in series [2] (preincubation 60 min with 500 μM BZ52) is reported as “significantly inhibited”. Moreover, the pIC50 is roughly 3.30 in series [3] (light or radiation study, MBP presented by irradiated thymocytes, read-out: IC50, MBP mediated proliferation) and roughly 4.00 in series [3] (ConA 1.25 μg/ml, read-out: IC50, ConA mediated proliferation). Moreover, in series [3], the proliferation entry is recorded as “efficiently inhibited”.
`CCCCCCCCNC(=O)C[n+]1cccc(C(=O)O)c1.[Br-]` [BZ194, 3-Carboxy-1-Octylcarbamoylmethyl-Pyridinium]: in series [1] (4 days after T cell transfer, BZ194 5 d, 500 μmol), the “recruitment of T cells, B cells, macrophages and dendritic cells into the CNS” value is recorded as “clearly diminished”. Also, the “infiltration of MBP-specific T cells into the CNS” value in series [1] (spinal cord, three days after T cell transfer, BZ194 500 μmol) is reported as “reduced; also recorded: seemed to interfere”. Besides, in series [1] (three days after T cell transfer, BZ194 500 μmol), the “distribution of TMBP-GFP cells in spleen” value is reported as “accumulated in the spleen”. Besides, the “TCR/CD3 complex mediated Ca2+ signalling” value in series [2] (MBP-specific rat T cell suspensions, standard and Ca2+-free/Ca2+-reintroduction protocol) is recorded as “partially blocked”. Moreover, in series [2], the “TCR/CD3-induced Ca2+ signalling” value was “efficiently inhibited”. Besides, the “sustained Ca2+ signalling” value in series [2] (both protocols, MBP-specific rat T cells) is recorded as “almost completely abolished”. Further, the T cell proliferation result in series [3] (MBP-pulsed irradiated APCs, increasing concentrations of BZ194, 48 h) is “anti-proliferative effect; also recorded: dose dependently suppressed”. Besides, the proliferation entry in series [3] was “efficiently inhibited”. For the same compound, the “proliferative response towards MBP challenge” value in series [3] (after foregoing incubation with 0.5 mM or 1 mM BZ194) is “did not block”. For the same compound, the “viability and reactivity of TMBP-GFP cells” value in series [3] (cells isolated ex vivo from BZ194-treated animals, challenge with MBP (not shown)) was “remained viable and fully reactive”.

For the origin of these results see patent US20070105810A1, “THERAPEUTICS” (priority 2003, published 2007).
